Laboratory results taken from patent US6562866B1 (priority 1998, dated 2003).

What was measured:
[1] = Chemical analysis of blood of rabbits fed 1% cholesterol diets; assay type: in vivo, New Zealand White rabbits; conditions: 6 weeks; for lowering of total plasma cholesterol level as compared to the comparative group: 0.1% in 1% cholesterol diet
Procedure: (§1) 24 three-month-old New Zealand White rabbits (Yeonam Horticulture and Animal Husbandry College, Korea), each weighing about 2.5 to 2.6 kg, were raised under a condition of temperature 20±2° C., relative humidity 55±5%, and photoperiod 12L/12D. […] RC4 diet comprises 7.6% moisture, 22.8% crude protein, 2.8% crude fat, 8.8% crude ash, 14.4% crude cellulose and 43.6% soluble nitrogen-free substances. Rutin and quercetin were purchased from Sigma Co. (St. Louis, Mo.).
The rabbits were fed for 6 weeks while being allowed free access to the diets and water.
After six weeks, the rabbits were anesthetized with an intramuscular injection of ketamine (50 mg/kg) in the femoral region and sacrificed. A blood sample was taken from the heart of each rabbit, allowed to stand for 2 hours and centrifuged at 3,000 rpm for 15 minutes and the supernatant serum was separated and stored in a freezer before use.
The chemical analysis of blood was carried out by employing a blood chemical analyzer (CIBA Corning 550 Express, USA) to determine the changes in GOT, GPT, γ-GTP, total cholesterol and triglyceride levels.

[2] = system: main artery fatty streak / arterial endothelium; assay: Analysis for fatty streak in the main artery of cholesterol-fed rabbits; assay type: in vivo, New Zealand White rabbits; conditions: for A: Proportion (%) of fatty streak region to the total arterial area: 1% cholesterol diet plus 0.1% rutin or quercetin or 1 mg/kg Lovastatin, 6 weeks, Oil Red O staining
Procedure: as §1, with “substances.” for “substances. Rutin and quercetin were purchased from Sigma Co. (St. Louis, Mo.).”
The chest of each of the rabbits sacrificed in Step 2 was incised. The downward portion of the main artery from the site 1 cm above the aortic valve was cut out in a length of about 5 cm and the fat surrounding the main artery was removed. The main artery was incised in the middle along the longitudinal axis and pinned to a dish. The moist artery was photographed and, then, the staining of fatty streaks was carried out in accordance with the method of Esper, E., et al. (J. Lab. Clin. Med., 121, 103-110 (1993)) as follows.
A part of the incised main artery was washed three times with anhydrous propylene glycol for 2 min and stained for 30 min. with a saturated solution of Oil Red O (ORO, Sigma Co.) dissolved in propylene glycol. Thereafter, the artery was washed twice with 85% propylene glycol for 3 min. to remove remaining staining solution and, then washed with physiological saline. The artery was photographed and the photograph was traced. The area of stained region (fatty streak region) was determined with an image analyzer (LEICA, Q-600, Germany) and its proportion (%) to the total arterial area was calculated.

[3] = system: liver cells around the central vein; assay: Microscopic grading of abnormal fat-containing cells in the liver of cholesterol-fed rabbits; assay type: in vivo, New Zealand White rabbits; conditions: 1% cholesterol plus 1 mg/kg Lovastatin or 0.1% rutin
Procedure: as §1, with “substances.” for “substances. Rutin and quercetin were purchased from Sigma Co. (St. Louis, Mo.).”

[4] = Plasma total cholesterol, HDL-cholesterol and neutral lipid in rats fed high-cholesterol diets; assay type: in vivo, Sprague-Dawley rats; conditions: six weeks
Procedure: 30 three-week-old white Sprague-Dawley rats (Taihan laboratory animal center, Korea), each weighing about 90 to 110 g, were evenly divided into three dietary groups by a randomized block design.
The rats were allowed to feed freely on the specified diet together with water for six weeks, the ingestion amount was recorded daily and the,rats were weighed every 7 days, and then the record was analyzed.
The rats of the dietary groups obtained in Step 1 were sacrificed and blood samples were taken therefrom. The blood was allowed to stand for 2 hours and centrifuged at 3,000 rpm for 15 minutes and the supernatant was separated and stored in a deep freezer before use. The chemical analysis of blood was carried out by employing a blood chemical analyzer (CIBA Corning 550 Express, USA) to determine the changes in total cholesterol, HDL-cholesterol and triglyceride levels.

ACAT = ACAT assay on liver microsomes of the fed rats; assay type: biochemical; conditions: liver microsomes of rats fed 0.1% test substance in 1% cholesterol diet, versus control group
Procedure: 1 g each of the livers taken from each group of rats of Example 2 was homogenized in 5 ml of homogenization medium (0.1 M KH2PO4, pH 7.4, 0.1 mM EDTA and 10 mM β-mercaptoethanol). The homogenate was centrifuged at 3,000×g for 15 min. at 4° C. and the supernatant thus obtained was centrifuged at 15,000×g for 15 min. at 4° C. to obtain a supernatant. The supernatant was put into an ultracentrifuge tube (Beckman) and centrifuged at 100,000×g for 1 hour at 4° C. to obtain microsomal pellets, which were then suspended in 3 ml of the homogenization medium and centrifuged at 100,000×g for 1 hour at 4° C. The pellets thus obtained were suspended in 1 ml of the homogenization medium. The protein concentration of the resulting suspension was determined by Lowry's method and then adjusted to 4 to 8 mg/ml. The resulting suspension was stored in a deep freezer (Biofreezer, Forma Scientific Inc.). […]
200 μl of the resulting supernatant was put in a scintillation bottle and 4 ml of scintillation fluid (Lumac) was added thereto. The mixture was assayed for radioactivity with 1450 Microbeta liquid scintillation counter (Wallacoy, Finland). ACAT activity was calculated as picomoles of cholesteryl oleate synthesized per min. per mg protein (pmoles/min/mg protein).

HMG-CoA reductase = biological target: T1, HMG-CoA reductase (Rattus norvegicus, UniProt P51639); assay: HMG-CoA reductase activity assay on liver microsomes of the fed rats; assay type: biochemical; conditions: liver microsomes of rats fed 0.1% test substance in 1% cholesterol diet, versus control group
T1 construct: the supernatant was ultracentrifuged at 100,000×g for 60 minutes to obtain microsomal precipitates; from tissue; host or cells: liver microsomes of the fed rats
T1 sequence (P51639 1-887): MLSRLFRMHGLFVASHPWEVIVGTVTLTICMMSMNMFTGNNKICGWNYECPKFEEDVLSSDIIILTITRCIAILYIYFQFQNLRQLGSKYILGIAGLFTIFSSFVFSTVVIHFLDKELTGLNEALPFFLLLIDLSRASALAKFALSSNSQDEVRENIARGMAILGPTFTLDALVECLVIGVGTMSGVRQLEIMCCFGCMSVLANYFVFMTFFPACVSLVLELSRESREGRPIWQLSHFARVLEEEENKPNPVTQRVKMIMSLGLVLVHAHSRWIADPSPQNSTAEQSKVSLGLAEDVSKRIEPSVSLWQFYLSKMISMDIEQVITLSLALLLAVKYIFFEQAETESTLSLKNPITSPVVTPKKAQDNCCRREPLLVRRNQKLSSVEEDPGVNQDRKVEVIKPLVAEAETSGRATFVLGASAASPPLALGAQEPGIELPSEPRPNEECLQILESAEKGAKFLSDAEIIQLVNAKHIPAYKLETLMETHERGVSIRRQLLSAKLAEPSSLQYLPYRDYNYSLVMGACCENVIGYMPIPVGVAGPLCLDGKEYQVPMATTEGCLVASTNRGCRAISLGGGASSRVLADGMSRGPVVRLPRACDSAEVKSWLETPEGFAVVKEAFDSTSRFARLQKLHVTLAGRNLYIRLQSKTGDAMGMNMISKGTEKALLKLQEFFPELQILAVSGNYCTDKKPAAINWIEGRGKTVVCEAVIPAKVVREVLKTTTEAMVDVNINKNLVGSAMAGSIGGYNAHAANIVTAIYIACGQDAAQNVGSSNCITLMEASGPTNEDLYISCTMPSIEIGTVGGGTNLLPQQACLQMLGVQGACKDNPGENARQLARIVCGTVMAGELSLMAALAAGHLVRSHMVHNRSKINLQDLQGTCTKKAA
Procedure: In order to determine the activity of HMG-COA reductase, Hulcher's method was employed after some modification (see J. Lipid Res., 14, 625-641(1973)). In this method, the concentration of the coenzyme-A (CoA-SH), which is produced when HMG-CoA is reduced to a mevalonate salt by the action of HMG-CoA reductase, is determined by spectroscopy and the activity of HMG-CoA reductas e is calculated therefrom.
3g of liver tissue taken from each group of rats of Example 2 was washed successively with 100 ml of a cold saline (0.15M NaCl) and 100 ml of a cold buffer solution A (0.1M triethanolamine, HCl/0.2M EDTA/2 mM dithiothreitol (DTT)). The cold buffer solution A was added to the liver tissue in an amount of 2 ml per 1 g of the liver tissue and the mixture was homogenized with a homogenizer. The homogenate was centrifuged at 15,000×g for 15 minutes, and then, the supernatant was ultracentrifuged at 100,000×g for 60 minutes to obtain microsomal precipitates. The precipitates thus obtained was washed with a cold buffer solution A and kept in a 1.5 ml tube at −70° C. […]
Then, the reactant was mixed with 20 μl of DTNB buffer solution (3mM DTNB/0.1M triethanolamine/0.2M EDTA, pH 7.4) and the absorbance of the mixture was determined at 412 nm to calculate the amount of CoA-SH (activity of HMG-CoA reductase activity).

ICR mice = assay: Toxicity of orally administered rutin (single oral dose, 10 day observation)
Procedure: 12 seven-week-old, specific pathogen-free ICR […] mice, six female mice each weighing about 25 to 29 g and six male mice each weighing about 34 to 38 g, were kept under an environment of 22±1° C., 55±5% relative humidity and 12L/12D photoperiod. Fodder (Cheiljedang Co., mouse and rat fodder) and water were sterilized and fed to the mice.
Further, on the 10th day, the mice were sacrificed and the internal organs were visually examined.

[5] = Administration of rutin capsules to humans, plasma lipid metabolism; assay type: in vivo, human; conditions: two men, daily oral dose of lomg/kg as capsule, 60 days, before vs after
Procedure: The plasma cholesterol and neutral lipid (triglyceride) contents were determined before and after the administration.

[6] = 1% cholesterol diet plus 0.1% rutin or quercetin or 1 mg/kg Lovastatin
[7] = 1% cholesterol diet plus 0.1% test substance

SMILES | TG (triglyceride) [1, 6] | Total-C (total cholesterol) [1, 6] | A: Proportion (%) of fatty streak region to the total arterial area [2] | reduction of neutral lipid content compared with control group ([4]; 0.1% in 1% cholesterol diet) | reduction of total plasma cholesterol level compared with control group ([4]; 0.1% in 1% cholesterol diet) | HDL-C (HDL-cholesterol) [4, 7] | TG (triglyceride) [4, 7] | Inhibition of HMG-CoA reductase activity (%) (HMG-CoA reductase) | lowering of total plasma cholesterol level as compared to the comparative group [1] | further results
CC[C@H](C)C(=O)O[C@H]1C[C@@H](C)C=C2C=C[C@H](C)[C@H](CC[C@@H]3C[C@@H](O)CC(=O)O3)[C@H]21 [Lovastatin ®, Lovastatin, reference compound] | 65.6 mg/dL | 1209.5 mg/dL | 5% | – | – | – | – | – | – | layer of macrophage-lipid complex on the arterial endothelium (FIGS. 1B, 1C) ([2]; 1% cholesterol plus 1 mg/kg Lovastatin or 0.1% rutin): no or very thin layers; microscopic features of the liver (FIGS. 2B, 2C) [3]: many cells containing excessive fat
O=c1c(O)c(-c2ccc(O)c(O)c2)oc2cc(O)cc(O)c12 [Quercetin, quercetin] | 30.0 mg/dL | 820.0 mg/dL | 8% | 17% | 30% | 41 ± 3 mg/dL | 81 ± 4 mg/dL | 30% | 30% | increase of HDL-C/Total-C ratio compared with control group ([4]; 0.1% in 1% cholesterol diet): 54%; HDL-C/Total-C ratio (row head is a formula, MATH:00001) [4, 7]: 43; Total-C (total cholesterol) [4, 7]: 95 ± 5 mg/dL; % Inhibition on ACAT activity (ACAT): 20%
C[C@@H]1O[C@@H](OC[C@H]2O[C@@H](Oc3c(-c4ccc(O)c(O)c4)oc4cc(O)cc(O)c4c3=O)[C@H](O)[C@@H](O)[C@@H]2O)[C@H](O)[C@H](O)[C@H]1O [Rutin] | 35.3 mg/dL | 798.2 mg/dL | 10% | 20% | 21% | 36 ± 2 mg/dL | 78 ± 3 mg/dL | 40% | 30% | survival at day 10 (ICR mice; mice, single oral dose of 1,000 mg/kg): All the mice were alive; pathological abnormality at autopsy (ICR mice; mice, single oral dose of 1,000 mg/kg, day 10): did not develop any pathological abnormality; toxicity (ICR mice; mouse, in vivo, po, 160 mg/kg): no toxicity; reduction of plasma cholesterol content [5]: 25%; reduction of plasma neutral lipid (triglyceride) content [5]: 20%; GOT [1, 6]: 87.0 IU/l; GPT [1, 6]: 33.9 IU/l; γ-GTP [1, 6]: 1.92 IU/l
